The results in this text go back to patent publication US10501479B2, “Benzenesulfonyl-asymmetric ureas and medical uses thereof” (HELSINN HEALTHCARE SA, priority 2016, dated 2019).

Like-named read-outs stand apart in the source and are kept apart here. Bounds are passed on as bounds.

Data set [1] has as its target T1, recombinant human ghrelin receptor (HEK293/GRLN) (Homo sapiens, UniProt Q92847).
T1 construct: expressed in transfected cells
Kind of data set: Ghrelin inverse agonist potency (EC50) with IP-1 (IP-One HTRF) assay. The note with it: IP-1 assay. Type of data set: cell-based. In outline: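 IP-1 accumulation was measured by HTRF (IP1-d2/Tb-cryptate, 620/665 nm read after 1 hour at room temperature) following 1 hour of compound treatment at 37° C. Cells were HEK293 stably expressing human ghrelin receptor, plated a day earlier on Matrigel. Inverse agonist potency was reported as EC50.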

In data set [2] the target is T2, GHSR-1a (HEK293/GHSR1a cell line) (Homo sapiens, UniProt Q92847).
T2 construct: expressed in transfected cells; host or cells: HEK293/GHSR1a cell line
T2 sequence (Q92847 whole entry): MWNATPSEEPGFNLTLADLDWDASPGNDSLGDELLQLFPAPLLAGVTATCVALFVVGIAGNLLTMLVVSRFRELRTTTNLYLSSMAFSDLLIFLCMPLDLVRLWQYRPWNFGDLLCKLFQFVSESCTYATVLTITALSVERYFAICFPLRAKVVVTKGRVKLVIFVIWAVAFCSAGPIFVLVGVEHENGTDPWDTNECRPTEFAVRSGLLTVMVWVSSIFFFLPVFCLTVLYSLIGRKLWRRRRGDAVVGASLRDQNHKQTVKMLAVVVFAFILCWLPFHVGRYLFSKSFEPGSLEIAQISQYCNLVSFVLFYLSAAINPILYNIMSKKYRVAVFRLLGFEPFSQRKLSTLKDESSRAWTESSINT
Kind of data set: Ghrelin agonist potency (EC50) with calcium FLIPR assay. Type of data set: cell-based. In short, it runs like this: (§1)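 In this assay, compound alone assesses agonism, while compound co-added with ghrelin at 10 nM assesses antagonism. In both modes the calcium-dye signal is tracked for 2 min from t=20 sec.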

Data set [3] addresses T2, GHSR-1a (HEK293/GHSR1a cell line). The experiment in a line: Ghrelin antagonist potency (IC50) with calcium FLIPR assay, ghrelin 10 nM. Type of data set: cell-based. In outline:
as §1

Data set [4] in a line: Metabolic stability in human liver microsomes. Type of data set: in vitro ADME. In short, it runs like this:
(§2)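 Loss of parent over time in microsomal incubations at 37 °C with NADPH regeneration, sampled up to 90 min and read by LC-MS/MS.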

A short description of data set [5]: Metabolic stability in mouse liver microsomes. Type of data set: in vitro ADME. In short, it runs like this:
as §2

Where [6] appears, read: HEK293/GRLN, read-out: Activity EC50 (ghrelin inverse agonist potency).
Setting [7] is: HEK293/GHSR1a, read-out: Activity EC50/EMax: EC50 (ghrelin agonist potency).
Setting [8] is: HEK293/GHSR1a, ghrelin 10 nM, read-out: Activity IC50 (ghrelin antagonist potency).
The mark [9] stands for this setting: ghrelin inverse agonist potency, read-out: Activity EC50.
[10] abbreviates: ghrelin agonist potency, read-out: Activity EC50/EMax.
[11] abbreviates: ghrelin antagonist potency, read-out: Activity IC50.

T1 sequence (Q92847 whole entry): as above

In the case of `C[C@H](NC(=O)Nc1ccc(S(=O)(=O)Cc2ccc3c(c2)CN(C)CC3)cc1)c1ccccc1` [H1311, (S)-1-(4-(((2-methyl-1,2,3,4-tetrahydroisoquinolin-7-yl)methyl)sulfonyl)phenyl)-3-(1-phenylethyl)urea], the results for the EC50 in data set [1] (setting [6]) and in data set [2] (setting [7]) were 84.6 nM and > 30 µM, respectively. Also, the IC50 in data set [3] (setting [8]) is 108 nM. Besides, the “Metabolic Stability Study H = human” value in data set [4] is 95.9 µL/min/mg. Further, the “Metabolic Stability Study M = mouse” value in data set [5] was 123.8 µL/min/mg.
As to `CC(NC(=O)Nc1ccc(S(=O)(=O)Cc2ccc3c(c2)CN(C2COC2)C3)cc1)c1ccccc1` (stereo not shown) [H1319, 1-(4-(((2-(oxetan-3-yl)isoindolin-5-yl)methyl)sulfonyl)phenyl)-3-(1-phenylethyl)urea], the EC50 in data set [1] (setting [6]) is 12.5 nM; in data set [2] (setting [7]), > 30 µM. In data set [3] (setting [8]), the IC50 turned out to be 41 nM. Moreover, the “Metabolic Stability Study H = human” value in data set [4] worked out at 195.6 µL/min/mg. In data set [5], the “Metabolic Stability Study M = mouse” value was > 500 µL/min/mg.
The like results for `COc1cccc(F)c1C(C)NC(=O)Nc1ccc(S(=O)(=O)Cc2ccc3c(c2)CNC3)cc1` (stereo not shown) [H1455, 1-(1-(2-fluoro-6-methoxyphenyl)ethyl)-3-(4-((isoindolin-5-ylmethyl)sulfonyl)phenyl)urea] were, in that order, 5.2 nM, > 30 µM, 42.5 nM, 55.5 µL/min/mg and 56.9 µL/min/mg.
The like results for `C[C@@H](NC(=O)Nc1ccc(S(=O)(=O)Nc2ccc3c(c2)CN(C)C3)cc1)c1ccccc1` [H1337, (R)-N-(2-methylisoindolin-5-yl)-4-(3-(1-phenylethyl)ureido) benzenesulfonamide] were, in that order, 10.5 nM, > 30 µM, 24.1 nM, 58.6 µL/min/mg and 39.2 µL/min/mg.
As for `CCc1ccc(Cl)c(C(C)NC(=O)Nc2ccc(S(=O)(=O)Cc3ccc4c(c3)CNC4)cc2)c1` (stereo not shown) [H1281, 1-(1-(2-chloro-5-ethylphenyl)ethyl)-3-(4-((isoindolin-5-ylmethyl)sulfonyl)phenyl)urea], the EC50 in data set [1] (setting [6]) is 15.3 nM; in data set [2] (setting [7]), > 30 µM. Also, the IC50 in data set [3] (setting [8]) is 39 nM. Moreover, the “Metabolic Stability Study H = human” value in data set [4] stood at 63.8 µL/min/mg. The “Metabolic Stability Study M = mouse” value in data set [5] is 47.8 µL/min/mg.
As to `CC(NC(=O)Nc1ccc(S(=O)(=O)Nc2ccc3c(c2)CN(C)C3)cc1)c1ccccc1` (stereo not shown) [H1308, N-(2-methylisoindolin-5-yl)-4-(3-(1-phenylethyl)ureido) benzenesulfonamide], the EC50 is 31.2 nM in data set [1] (setting [6]) and > 30 µM in data set [2] (setting [7]). For the same compound, the IC50 in data set [3] (setting [8]) came out at 23.5 nM. Besides, the “Metabolic Stability Study H = human” value in data set [4] was 49.4 µL/min/mg. The “Metabolic Stability Study M = mouse” value in data set [5] came to 38.5 µL/min/mg.
The like results for `CC1Cc2cc(CS(=O)(=O)c3ccc(NC(=O)NC(C)c4ccccc4)cc3)ccc2CN1` (stereo not shown) [H1406, 1-(4-(((3-methyl-1,2,3,4-tetrahydroisoquinolin-6-yl)methyl)sulfonyl)phenyl)-3-(1-phenylethyl)urea] were, in that order, 7.92 nM, > 30 µM, 85.5 nM, 15 µL/min/mg and 22.2 µL/min/mg.
As for `CC(NC(=O)Nc1ccc(S(=O)(=O)Cc2ccc3c(c2)CNC3)cc1)c1cccc(F)c1` (stereo not shown) [H1269, 1-(1-(3-fluorophenyl)ethyl)-3-(4-((isoindolin-5-ylmethyl)sulfonyl)phenyl)urea], the EC50 in data set [1] (setting [6]) is 8.8 nM; in data set [2] (setting [7]), > 30 µM. Further, the half-inhibitory concentration (IC50) in data set [3] (setting [8]) was 24 nM. The “Metabolic Stability Study H = human” value in data set [4] worked out at 25.7 µL/min/mg. Further, in data set [5], the “Metabolic Stability Study M = mouse” value was found to be 23.6 µL/min/mg.
In the case of `CC(NC(=O)Nc1ccc(S(=O)(=O)Cc2ccc3c(c2)CNC3)cc1)c1cccc(Cl)c1` (stereo not shown) [H1260, 1-(1-(3-chlorophenyl)ethyl)-3-(4-((isoindolin-5-ylmethyl)sulfonyl)phenyl)urea], the EC50 is 4.4 nM in data set [1] (setting [6]) and > 30 µM in data set [2] (setting [7]). Further, in data set [3] (setting [8]), the IC50 was determined as 3.7 nM. Besides, the “Metabolic Stability Study H = human” value in data set [4] worked out at 38.9 µL/min/mg. In data set [5], the “Metabolic Stability Study M = mouse” value worked out at 24.7 µL/min/mg.
As to `CC(NC(=O)Nc1ccc(S(=O)(=O)Nc2ccc3c(c2)CCN(C)C3)cc1)c1ccccc1F` (stereo not shown) [H1347, 4-(3-(1-(2-fluorophenyl)ethyl)ureido)-N-(2-methyl-1,2,3,4-tetrahydroisoquinolin-6-yl)benzenesulfonamide], the figures for the EC50 in data set [1] (setting [6]) and in data set [2] (setting [7]) were 7.95 nM and > 30 µM, respectively. Besides, the IC50 in data set [3] (setting [8]) amounted to 26.2 nM. In addition, in data set [4], the “Metabolic Stability Study H = human” value came to 59.9 µL/min/mg. The “Metabolic Stability Study M = mouse” value in data set [5] is 58.1 µL/min/mg.
Consider `COc1cc(NC(=O)N(O)C(C)c2ccccc2F)ccc1S(=O)(=O)Cc1ccc2c(c1)CNC2` (stereo not shown) [H1510, 1-(1-(2-fluorophenyl)ethyl)-1-hydroxy-3-(4-((isoindolin-5-ylmethyl)sulfonyl)-3-methoxyphenyl)urea], for which the EC50 in data set [1] (setting [9]) was 3.5 nM; in data set [2] (setting [10]) it was > 30 µM. Also, the IC50 in data set [3] (setting [11]) came out at 5.36 nM. In addition, the “Metabolic Stability Study H = human” value in data set [4] came to 23.8 µL/min/mg. In data set [5], the “Metabolic Stability Study M = mouse” value was 18.4 µL/min/mg.
Regarding `CCc1ccc(Cl)c(C(C)NC(=O)Nc2ccc(S(=O)(=O)Cc3ccc4c(c3)CN(C)C4)cc2)c1` (stereo not shown) [H1286, 1-(1-(2-chloro-5-ethylphenyl)ethyl)-3-(4-(((2-methylisoindolin-5-yl)methyl)sulfonyl)phenyl)urea], the EC50 in data set [1] (setting [6]) is 24.3 nM; in data set [2] (setting [7]), > 30 µM. The IC50 in data set [3] (setting [8]) turned out to be 39.5 nM. In data set [4], the “Metabolic Stability Study H = human” value is 251.8 µL/min/mg. Further, in data set [5], the “Metabolic Stability Study M = mouse” value was 162.4 µL/min/mg.
As to `COc1cc(NC(=O)N(O)C(C)c2ccccc2)ccc1S(=O)(=O)Cc1ccc2c(c1)CN(C)C2` (stereo not shown) [H1516, 1-hydroxy-3-(3-methoxy-4-(((2-methylisoindolin-5-yl)methyl)sulfonyl)phenyl)-1-(1-phenylethyl)urea], the EC50 in data set [1] (setting [9]) is 11.3 nM; in data set [2] (setting [10]), > 30 µM. Moreover, the IC50 in data set [3] (setting [11]) was determined as 33.5 nM. In data set [4], the “Metabolic Stability Study H = human” value came out at 65.2 µL/min/mg. The “Metabolic Stability Study M = mouse” value in data set [5] turned out to be 35.1 µL/min/mg.
`Cc1oc(=O)oc1COC(=O)N1Cc2ccc(CS(=O)(=O)c3ccc(NC(=O)NC(C)c4ccccc4)cc3)cc2C1` (stereo not shown) [H1256, (5-methyl-2-oxo-1,3-dioxol-4-yl)methyl 5-(((4-(3-(1-phenylethyl)ureido)phenyl)sulfonyl)methyl)isoindoline-2-carboxylate]: the EC50 in data set [1] (setting [6]) was 124 nM; in data set [2] (setting [7]) it was > 30 µM. In addition, the half-maximal inhibitory concentration (IC50) in data set [3] (setting [8]) came out at 90 nM. Further, the “Metabolic Stability Study H = human” value in data set [4] is 268.4 µL/min/mg. The “Metabolic Stability Study M = mouse” value in data set [5] came out at 272.6 µL/min/mg.
